≈ marks a conversion by molar mass, not a printed value. Where two headings read alike, the source gives them in different places. Marks after values point to notes of the source that are not given here.
System: Legionella pneumophila MMX 7515
Test: microbe, parasite or virus in culture
Type: cell-based
Conditions: for MIC: Legionella pneumophila
[1] = MMX7515, 24 h, read-out: MIC (in vitro activity)
[2] = MMX7515, 48 h, read-out: MIC (in vitro activity)

## C=C(C)C1CCC(C)=CC1c1c(O)cc(CCCCC)cc1O (centres unmarked) [CBD, 2-[3-methyl-6-(1-methylethenyl)-2-cyclohexen-1-yl]-5-pentyl-1,3-benzenediol]
[1]
  MIC: 1 µg/mL (≈ 3.18 µM)
[2]
  MIC: 1 µg/mL (≈ 3.18 µM)
MMX7515, read-out: MIC values
  MIC: 1 µg/mL (≈ 3.18 µM)

## CN[C@H](CC(C)C)C(=O)N[C@H]1C(=O)N[C@@H](CC(N)=O)C(=O)N[C@H]2C(=O)N[C@H]3C(=O)N[C@H](C(=O)N[C@H](C(=O)O)c4cc(O)cc(O)c4-c4cc3ccc4O)[C@H](O)c3ccc(c(Cl)c3)Oc3cc2cc(c3O[C@@H]2O[C@H](CO)[C@@H](O)[C@H](O)[C@H]2O[C@H]2C[C@](C)(N)[C@H](O)[C@H](C)O2)Oc2ccc(cc2Cl)[C@H]1O [VAN, vancomycin]
[1]
  MIC: 0.12 µg/mL (≈ 0.0828 µM)
[2]
  MIC: 0.25 µg/mL (≈ 0.173 µM)

## C[C@@H](O)[C@H]1C(=O)N2C(C(=O)O)=C(S[C@@H]3CN[C@H](C(=O)N(C)C)C3)[C@H](C)[C@H]12 [MEM, meropenem]
[1]
  MIC: 0.25 µg/mL (≈ 0.652 µM)
[2]
  MIC: 0.5 µg/mL (≈ 1.3 µM)

## gentamicin
L. pneumophila MMX 7515, plate read at 48 hr
  MIC (in vitro activity): 2** μg/mL
Legionella pneumophila MMX 7515, plate read at 24 hr
  MIC (in vitro activity): 1* μg/mL

## C[C@H]1COc2c(N3CCN(C)CC3)c(F)cc3c(=O)c(C(=O)O)cn1c23 [LVX, levofloxacin]
[1]
  MIC: 0.5 µg/mL (≈ 1.38 µM)
[2]
  MIC: 0.5 µg/mL (≈ 1.38 µM)

Reference: US20230014447A1 (priority 2019, published 2023)
